The target in the assay is T1, 5-HT3 receptors (Rattus norvegicus, UniProt P35563).
T1 construct: from tissue; host or cells: whole anesthetized rat (in vivo)
T1 sequence (P35563 24-483): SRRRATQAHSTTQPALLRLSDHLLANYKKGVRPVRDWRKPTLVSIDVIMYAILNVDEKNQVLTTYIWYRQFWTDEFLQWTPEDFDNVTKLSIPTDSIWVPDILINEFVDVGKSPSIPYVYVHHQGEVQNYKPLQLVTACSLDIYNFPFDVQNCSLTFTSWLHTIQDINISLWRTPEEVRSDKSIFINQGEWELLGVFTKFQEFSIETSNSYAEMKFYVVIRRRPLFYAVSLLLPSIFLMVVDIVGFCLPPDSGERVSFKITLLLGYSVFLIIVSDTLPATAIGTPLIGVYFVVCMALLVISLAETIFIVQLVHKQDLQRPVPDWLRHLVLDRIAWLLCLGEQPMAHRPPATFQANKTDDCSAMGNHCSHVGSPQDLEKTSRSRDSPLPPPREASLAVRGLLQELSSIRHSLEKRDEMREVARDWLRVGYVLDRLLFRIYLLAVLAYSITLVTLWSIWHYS
Briefly: Bezold-Jarish reflex in anesthetized rats (serotonin-induced bradycardia and hypotension). Format: in vivo. The conditions noted are these: iv, antagonist injected 5 min before serotonin (20 μg/kg i.v.), urethane-anesthetized rats. From the text:
As already mentioned hereinbefore the new compounds of formula (I), according to the present invention, have interesting pharmacological properties owing to their ability to antagonize the physiological 5-HT effects at 5-HT3 receptors in warm-blooded animals. Therefore the new compounds are commercially useful in the prevention and in the treatment of disorders wherein 5-HT3 receptors are involved, such as chemotherapy or radiation induced nausea and emesis, migraine, delayed gastric emptying, stress-induced psychological disorders, irritable bowel syndrome, arrhytmia and rhinitis.
Bezold-Jarish Reflex in Anesthetized Rats
Rats (250-275 g) were anesthetized with urethane (1.25 g/kg ip.). The blood pressure and the heart rate were recorded from the left femoral artery by means of a pressure transducer (Statham) connected with a cardiotachometer. The Bezold-Jarish reflex was elicited by rapid intravenous injection of serotonin (20 μg/kg).
Increasing doses of antagonists were injected 5 min. before serotonin to evaluate their effect on the initial bradycardia and associated fall in blood pressure resulting from the reflex vagal stimulation. In other experiments, the right vagus nerve was stimulated with platinum electrodes at 10 V, 10 Hz, 2 msec, (Grass 248 stimulator), to evoke bradycardia. ED50 values were calculated by linear regression analysis of the data expressed as percentage inhibition.

The mark [1] stands for this setting: inhibition of fall in blood pressure, read-out: Hypotension ED50.

Our source for the ED50 values is patent publication US5252570A, “Amidino and guanidino derivatives” (B.I. Italia, priority 1988, dated 1993).

What is called ED50 is the midpoint of the dose-response relation.

The structures appear in SMILES notation. Where a name gives a salt, the structure may show the parent alone. Read-outs that look alike come from different tables or passages of the source.

Consider `N=CN1[C@@H]2CC[C@H]1C[C@@H](OC(=O)c1cc(Cl)cc(Cl)c1)C2` [Compound 15, endo-(8-Iminomethyl-8-azabicyclo-[3.2.1]oct-3-yl)-3,5-dichlorobenzoate hydrochloride], for which the ED50 reads like this: under setting [1], 0.5 µg/kg; (inhibition of initial bradycardia, read-out: Bradycardia ED50) 0.2 µg/kg.

Regarding `N=CN1[C@@H]2CC[C@H]1C[C@@H](OC(=O)c1c[nH]c3ccccc13)C2` [Compound 16, endo-8-(Iminomethyl-8-azabicyclo[3.2.1]oct-3-yl)-1H-indol-3-carboxylate hydrochloride], the ED50 under setting [1] came out at 0.3 µg/kg.
